Assay results reported in patent US11564928B1, “Cannabinoid receptor type 2 (CB2) modulators and uses thereof” (Teon Therapeutics, Inc., priority 2020, dated 2023).
Like-named read-outs stand apart in the source and are kept apart here.

Tests used:
[1] = molecular target: human CB2 receptor (Homo sapiens (Human), UniProt P34972); experiment: CB2 receptor binding assay ([3H]CP-55,940 displacement, HEK-293 membranes)
[2] = molecular target: human recombinant CB1R (Homo sapiens (Human), UniProt P21554); experiment: CB1 receptor binding assay ([3H]CP-55,940 displacement, HEK-293 membranes); details: membranes of HEK-293 cells with human recombinant CB1R, [3H]CP-55,940, read-out: CB1 IC50
human recombinant CB1R, sequence (P21554 whole entry): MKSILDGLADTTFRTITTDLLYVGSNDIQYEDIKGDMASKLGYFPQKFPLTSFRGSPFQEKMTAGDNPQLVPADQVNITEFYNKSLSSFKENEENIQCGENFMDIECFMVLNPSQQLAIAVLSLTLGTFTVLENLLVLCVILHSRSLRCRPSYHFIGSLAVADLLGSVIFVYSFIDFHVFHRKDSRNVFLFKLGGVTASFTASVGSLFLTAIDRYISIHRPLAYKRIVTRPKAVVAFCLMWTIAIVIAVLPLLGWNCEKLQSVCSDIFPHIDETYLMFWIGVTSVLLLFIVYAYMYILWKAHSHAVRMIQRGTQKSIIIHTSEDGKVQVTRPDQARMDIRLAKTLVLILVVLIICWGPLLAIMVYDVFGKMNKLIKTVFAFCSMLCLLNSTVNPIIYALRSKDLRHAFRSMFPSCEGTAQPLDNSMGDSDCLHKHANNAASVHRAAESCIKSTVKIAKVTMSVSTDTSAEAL
Summary of the method: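 Membranes from HEK-293 cells expressing human recombinant CB1R or CB2R were incubated with [3H]CP-55,940 and compound for 120 min at 37 °C in duplicate. The CB2R incubation buffer was 50 mM Tris-HCl, 5 mM MgCl2, 1 mM CaCl2, 0.2% BSA, pH 7.4. Bound radioactivity was filtered and counted, and IC50 was converted to Ki by Cheng–Prusoff.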

[3] = membranes of HEK-293 cells with human recombinant CB2R, [3H]CP-55,940, class symbols, read-out: CB2 IC50
[4] = membranes of HEK-293 cells with human recombinant CB2R, [3H]CP-55,940, read-out: CB2 IC50

human CB2 receptor, sequence (P34972 whole entry): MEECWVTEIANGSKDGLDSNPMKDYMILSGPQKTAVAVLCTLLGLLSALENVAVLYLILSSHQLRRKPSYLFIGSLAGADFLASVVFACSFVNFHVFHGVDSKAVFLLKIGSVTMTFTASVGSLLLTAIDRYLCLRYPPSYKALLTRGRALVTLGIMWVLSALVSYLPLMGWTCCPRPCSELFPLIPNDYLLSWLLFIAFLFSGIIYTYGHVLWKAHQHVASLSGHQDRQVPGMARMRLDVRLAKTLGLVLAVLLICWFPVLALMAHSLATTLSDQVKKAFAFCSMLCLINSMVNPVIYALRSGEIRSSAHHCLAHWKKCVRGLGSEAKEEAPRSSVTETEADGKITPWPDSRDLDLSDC

`CC(C)(CO)NC(=O)c1c(O)c2cc(-c3ccc(F)cc3)cnc2n(CCN2CCOCC2)c1=O` [Compound 117, 6-(4-fluorophenyl)-4-hydroxy-N-(1-hydroxy-2-methylpropan-2-yl)-1-(2-morpholinoethyl)-2-oxo-1,2-dihydro-1,8-naphthyridine-3-carboxamide] was tested, and the IC50 [1] was 100 to 999 nM and the IC50 ([2]; class symbols) was over 1000 nM.

Work on `CC(C)(C)NC(=O)c1c(O)c2cc(-c3ccc(F)cc3)cnc2n(CCN2CCOCC2)c1=O` [Compound 118, N-(tert-butyl)-6-(4-fluorophenyl)-4-hydroxy-1-(2-morpholinoethyl)-2-oxo-1,2-dihydro-1,8-naphthyridine-3-carboxamide] yielded an IC50 [1] of 100 to 999 nM and an IC50 ([2]; class symbols) of over 1000 nM.

Molecule `COC(=O)C(C)(C)NC(=O)c1c(O)c2cc(-c3ccc(F)cc3)cnc2n(CCN2CCOCC2)c1=O` [Compound 119, methyl 2-(6-(4-fluorophenyl)-4-hydroxy-1-(2-morpholinoethyl)-2-oxo-1,2-dihydro-1,8-naphthyridine-3-carboxamido)-2-methylpropanoate] has an IC50 [1] of 100 to 999 nM and an IC50 ([2]; class symbols) of over 1000 nM.

In the case of `CC(C)(NC(=O)c1c(O)c2cc(-c3ccc(F)cc3)cnc2n(CCN2CCOCC2)c1=O)C(=O)O` [Compound 120, 2-(6-(4-fluorophenyl)-4-hydroxy-1-(2-morpholinoethyl)-2-oxo-1,2-dihydro-1,8-naphthyridine-3-carboxamido)-2-methylpropanoic acid], the IC50 [1, 3] is reported as over 1000 nM and the IC50 ([2]; class symbols) is reported as over 1000 nM.

With `O=C(NC1(CO)CCCCC1)c1c(O)c2cc(-c3ccc(F)cc3)cnc2n(CCN2CCOCC2)c1=O` [Compound 121, 6-(4-fluorophenyl)-4-hydroxy-N-(1-(hydroxymethyl)cyclohexyl)-1-(2-morpholinoethyl)-2-oxo-1,2-dihydro-1,8-naphthyridine-3-carboxamide] the IC50 [1, 4] was 9 nM and the IC50 [2] was 2320 nM.

For `O=C(NC12CC(C1)C2)c1c(O)c2cc(-c3ccc(F)cn3)cnc2n(CCN2CCOCC2)c1=O` [Compound 122, N-(bicyclo[1.1.1]pentan-1-yl)-6-(5-fluoropyridin-2-yl)-4-hydroxy-1-(2-morpholinoethyl)-2-oxo-1,2-dihydro-1,8-naphthyridine-3-carboxamide], the IC50 [1] was 100 to 999 nM and the IC50 ([2]; class symbols) was over 1000 nM.

`O=C(NC12CC(C1)C2)c1c(O)c2cc(-c3cccnc3)cnc2n(CCN2CCOCC2)c1=O` [Compound 123, N-(bicyclo[1.1.1]pentan-1-yl)-4-hydroxy-1-(2-morpholinoethyl)-2-oxo-6-(pyridin-3-yl)-1,2-dihydro-1,8-naphthyridine-3-carboxamide] was tested, and the IC50 [1, 3] was over 1000 nM and the IC50 ([2]; class symbols) was over 1000 nM.

`O=C(NC12CC(C1)C2)c1c(O)c2cc(-c3ccncc3)cnc2n(CCN2CCOCC2)c1=O` [Compound 124, N-(bicyclo[1.1.1]pentan-1-yl)-4-hydroxy-1-(2-morpholinoethyl)-2-oxo-6-(pyridin-4-yl)-1,2-dihydro-1,8-naphthyridine-3-carboxamide] gave an IC50 [1, 3] of over 1000 nM and an IC50 ([2]; class symbols) of over 1000 nM.

`O=C(NC12CC(C1)C2)c1c(O)c2cc(C3=CCCC3)cnc2n(CCN2CCOCC2)c1=O` [Compound 125, N-(bicyclo[1.1.1]pentan-1-yl)-6-(cyclopent-1-en-1-yl)-4-hydroxy-1-(2-morpholinoethyl)-2-oxo-1,2-dihydro-1,8-naphthyridine-3-carboxamide] was tested, and the IC50 [1] was 100 to 999 nM and the IC50 ([2]; class symbols) was over 1000 nM.

`O=C(NC12CC(C1)C2)c1c(O)c2cc(C3CCCC3)cnc2n(CCN2CCOCC2)c1=O` [Compound 126, N-(bicyclo[1.1.1]pentan-1-yl)-6-cyclopentyl-4-hydroxy-1-(2-morpholinoethyl)-2-oxo-1,2-dihydro-1,8-naphthyridine-3-carboxamide] showed an IC50 [1, 3] of over 1000 nM and an IC50 ([2]; class symbols) of over 1000 nM.

`O=C(NC12CC(C1)C2)c1c(O)c2cc(C3CCC3)cnc2n(CCN2CCOCC2)c1=O` [Compound 127, N-(bicyclo[1.1.1]pentan-1-yl)-6-cyclobutyl-4-hydroxy-1-(2-morpholinoethyl)-2-oxo-1,2-dihydro-1,8-naphthyridine-3-carboxamide] was tested, and the IC50 [1, 3] was over 1000 nM and the IC50 ([2]; class symbols) was over 1000 nM.

In the case of `O=C(NC12CC(C1)C2)c1c(O)c2cc(-c3ccc(F)cc3)cnc2n(CCN2CCCCC2)c1=O` [Compound 128, N-(bicyclo[1.1.1]pentan-1-yl)-6-(4-fluorophenyl)-4-hydroxy-2-oxo-1-(2-(piperidin-1-yl)ethyl)-1,2-dihydro-1,8-naphthyridine-3-carboxamide], the IC50 [1] is reported as 100 to 999 nM and the IC50 ([2]; class symbols) is reported as over 1000 nM.

`O=C(NC12CC(C1)C2)c1c(O)c2cc(-c3ccc(F)cc3)cnc2n(Cc2ccncc2)c1=O` [Compound 129, N-(bicyclo[1.1.1]pentan-1-yl)-6-(4-fluorophenyl)-4-hydroxy-2-oxo-1-(pyridin-4-ylmethyl)-1,2-dihydro-1,8-naphthyridine-3-carboxamide] was tested, and the IC50 [1, 3] was over 1000 nM and the IC50 ([2]; class symbols) was over 1000 nM.

For `O=C(NC12CC(C1)C2)c1c(O)c2cc(-c3ccc(F)cc3)cnc2n(Cc2cccnc2)c1=O` [Compound 130, N-(bicyclo[1.1.1]pentan-1-yl)-6-(4-fluorophenyl)-4-hydroxy-2-oxo-1-(pyridin-3-ylmethyl)-1,2-dihydro-1,8-naphthyridine-3-carboxamide], the IC50 [1, 3] was over 1000 nM and the IC50 ([2]; class symbols) was over 1000 nM.

Molecule `O=C(NC12CC(C1)C2)c1c(O)c2cc(-c3ccc(F)cc3)cnc2n(Cc2ccc(F)cn2)c1=O` [Compound 131, N-(bicyclo[1.1.1]pentan-1-yl)-6-(4-fluorophenyl)-1-((5-fluoropyridin-2-yl)methyl)-4-hydroxy-2-oxo-1,2-dihydro-1,8-naphthyridine-3-carboxamide] has an IC50 [1, 3] of over 1000 nM and an IC50 ([2]; class symbols) of over 1000 nM.

With `CN1CCN(CCn2c(=O)c(C(=O)NC34CC(C3)C4)c(O)c3cc(-c4ccc(F)cc4)cnc32)CC1` [Compound 132, N-(bicyclo[1.1.1]pentan-1-yl)-6-(4-fluorophenyl)-4-hydroxy-1-(2-(4-methylpiperazin-1-yl)ethyl)-2-oxo-1,2-dihydro-1,8-naphthyridine-3-carboxamide] the IC50 [1] was 100 to 999 nM and the IC50 ([2]; class symbols) was over 1000 nM.

For `O=C(NC12CC(C1)C2)c1c(O)c2cc(-c3ccc(F)cc3)cnc2n(CCN2CCC(F)CC2)c1=O` [Compound 133, N-(bicyclo[1.1.1]pentan-1-yl)-6-(4-fluorophenyl)-4-hydroxy-2-oxo-1-(2-(4-fluoropiperidin-1-yl)ethyl)-1,2-dihydro-1,8-naphthyridine-3-carboxamide], the IC50 [1] was 100 to 999 nM and the IC50 ([2]; class symbols) was over 1000 nM.

`O=C(NC1CC2(CCC2)C1)c1c(O)c2cccnc2n(Cc2ccc(F)cc2)c1=O` [Compound 134, 1-(4-fluorobenzyl)-4-hydroxy-2-oxo-N-(spiro[3.3]heptan-2-yl)-1,2-dihydro-1,8-naphthyridine-3-carboxamide] was tested, and the IC50 [1] was 100 to 999 nM and the IC50 ([2]; class symbols) was over 1000 nM.

`O=C(NC1CC2(CCC2)C1)c1c(O)c2cccnc2n(CCN2CCOCC2)c1=O` [Compound 135, 4-hydroxy-2-oxo-1-(2-morpholinoethyl)-N-(spiro[3.3]heptan-2-yl)-1,2-dihydro-1,8-naphthyridine-3-carboxamide] was tested, and the IC50 [1, 3] was under 100 nM and the IC50 ([2]; class symbols) was over 1000 nM.

`O=C(NC12CC(C1)C2)c1c(O)c2cccnc2n(CCN2CCOCC2)c1=O` [Compound 136, N-(bicyclo[1.1.1]pentan-1-yl)-4-hydroxy-1-(2-morpholinoethyl)-2-oxo-1,2-dihydro-1,8-naphthyridine-3-carboxamide] gave an IC50 [1, 3] of over 1000 nM and an IC50 ([2]; class symbols) of over 1000 nM.

With `C[C@H]1CC[C@@H](NC(=O)c2c(O)c3cccnc3n(CCN3CCOCC3)c2=O)CC1` [Compound 137, 4-hydroxy-N-((1s, 4s)-4-methylcyclohexyl)-1-(2-morpholinoethyl)-2-oxo-1,2-dihydro-1,8-naphthyridine-3-carboxamide] the IC50 [1, 4] was 15 nM and the IC50 [2] was over 10000 nM.

`O=C(NC1(CO)CCCCC1)c1c(O)c2cccnc2n(CCN2CCOCC2)c1=O` [Compound 138, 4-hydroxy-N-[1-(hydroxymethyl)cyclohexyl]-1-(2-morpholinoethyl)-2-oxo-1,8-naphthyridine-3-carboxamide] showed an IC50 [1] of 100 to 999 nM and an IC50 ([2]; class symbols) of over 1000 nM.

Molecule `O=C(NC12CC(C1)C2)c1c(O)c2cccnc2n(Cc2ccc(F)cc2)c1=O` [Compound 139, N-(1-bicyclo[1.1.1]pentanyl)-1-[(4-fluorophenyl)methyl]-4-hydroxy-2-oxo-1,8-naphthyridine-3-carboxamide] has an IC50 [1, 3] of over 1000 nM and an IC50 ([2]; class symbols) of over 1000 nM.

`CC(C)(CO)NC(=O)c1c(O)c2cccnc2n(Cc2ccc(F)cc2)c1=O` [Compound 140, 1-[(4-fluorophenyl)methyl]-4-hydroxy-N-(2-hydroxy-1,1-dimethyl-ethyl)-2-oxo-1,8-naphthyridine-3-carboxamide] gave an IC50 [1] of 100 to 999 nM and an IC50 ([2]; class symbols) of over 1000 nM.

With `CC12CC(NC(=O)c3c(O)c4cccnc4n(Cc4ccc(F)cc4)c3=O)(C1)C2` [Compound 141, 1-[(4-fluorophenyl)methyl]-4-hydroxy-N-(3-methyl-1-bicyclo[1.1.1]pentanyl)-2-oxo-1,8-naphthyridine-3-carboxamide] the IC50 [1] was 100 to 999 nM and the IC50 ([2]; class symbols) was over 1000 nM.

For `O=C(NC1CC2(CC2)C1)c1c(O)c2cccnc2n(Cc2ccc(F)cc2)c1=O` [Compound 142, 1-[(4-fluorophenyl)methyl]-4-hydroxy-2-oxo-N-spiro[2.3]hexan-5-yl-1,8-naphthyridine-3-carboxamide], the IC50 [1] was 100 to 999 nM and the IC50 ([2]; class symbols) was over 1000 nM.

In the case of `C[C@H]1CC[C@@H](NC(=O)c2c(O)c3cccnc3n(Cc3ccc(F)cc3)c2=O)CC1` [Compound 143, 1-(4-fluorobenzyl)-4-hydroxy-N-((1s, 4s)-4-methylcyclohexyl)-2-oxo-1,2-dihydro-1,8-naphthyridine-3-carboxamide], the IC50 [1, 4] is reported as 34 nM and the IC50 [2] is reported as 3360 nM.
